Measured values: patent US20100022495A1, “MODULATING ENDOPLASMIC RETICULUM STRESS IN THE TREATMENT OF TUBEROUS SCLEROSIS” (PRESIDENT AND FELLOWS OF HARVARD COLLEGE, priority 2005, published 2010)

Legend:
[1] = system: TSC1−/− MEFs; experiment: ER stress parameters (western blot, XBP-1 rt-PCR) in TSC1-deficient MEFs; type: cell-based, mouse; conditions: for splicing of XBP-1 mRNA (UPR activation): thapsigargin 0.05 nM, tunicamycin 0.002 ug/ml, compared with controls
Method: (§1) All of the mouse embryonic fibroblast (MEF) cell lines (TSC1+/+, TSC1−/−, TSC2+/+, TSC2−/−) were cultured in medium containing DMEM-H+10% fetal bovine serum (FBS)+1% PS (penicillin-streptomycin complex) in 175 cm^2 cell culture flasks using standard methods. Upon reaching 90% confluency, cells were split into 10 cm dishes at 30-40% confluency and grown again in DMEM-H+10% FBS+1% PS to about 60% confluency for experiments.
[…] As a vehicle control, DMSO was not present at a sufficiently high concentration to act as a chemical chaperone. […] At the end of the incubation, the media was removed and dishes were immediately frozen in liquid nitrogen and stored at −80° C. untile further use.
(§2) Protein extracts were prepared with a lysis buffer containing 25 mM Tris-HCl (pH 7.4), 2 mM Na3VO4, 10 mM NaF, 10 mM Na4P2O7, 1 mM EGTA, 1 mM EDTA, 1% NP-40, 5 ug/ml leupeptin, 5 ug/ml aprotinin, 10 nM okadaic acid, and 1 mM phenylmethylsulfonyl fluoride (PMSF). Immunoprecipitations and immunoblotting experiments were performed with 200 and 75 μg total protein, respectively without any freeze-thaw cycles from individual aliquots.
(§3) Protein concentrations were normalized and the desired amounts were aliquotted into tubes. Laemelli buffer was added to a 1× final concentration and the samples were boiled for five minutes. After boiling, the samples were incubated at room temperature for 20 minutes. The boiled, cooled lysates were centrifuged at 14,000 rpm and subject to SDS-PAGE. Proteins were transferred to PVDF membranes for western blotting.
(§4) Membrane blotting was performed using standard techniques and reagents. Appropriate modification depending on the antibodies used and other considerations, is within the ability of those skilled in the art. Membranes were blocked in 10% blocking reagent for 1 hour prior to exposure to primary antibody in tris-buffered saline-tween (TBST), pH 7.4, overnight at 4° C. Following overnight incubation, membranes were washed in TBST for 3×20 minutes and placed into secondary antibody for 1 hour. Subsequently the membrane was washed 3×20 minutes in TBST. After the washing period, the membranes were developed by using a chemiluminescence kit and the bands were visualized using a phospho imager system (VersaDoc Imaging System, Model 3000).
(§5) Phosphorylation state of the ER stress markers PERK and s6K1 were analyzed in both wild type (TSC2+/+ and TSC1+/+) and TSC-deficient (TSC2−/− and TSC1−/−) MEFs. Cells were cultured and treated with DMSO (vehicle control) or rapamycin as discussed above. Rapamycin inhibits signaling through the mTOR pathway which is required for ER stress response. The DMSO was present at too low of a concentration to act as a chemical chaperone. Cells were harvested and protein and RNA were isolated. Protein samples were resolved by SDS-PAGE and proteins were transferred to PVDF membrane for western blotting as described above. RNA was subjected to rt-PCR using probes designed to mouse XBP-1 to detect splicing.
(§6) Phosphorylation state of the ER stress markers PERK, eIF2α cJun, JNK and s6K1, and the level of spliced XBP-1 were analyzed in both wild type and TSC-deficient MEFs. Cells were treated with PBS (vehicle control) or PBA (chemical chaperone) as discussed above. Cells were harvested, samples were resolved by SDS-PAGE, proteins were transferred to PVDF membrane, and western blots were performed as described above.

[2] = system: TSC2−/− MEFs; experiment: ER stress parameters (western blot, XBP-1 rt-PCR) in TSC2-deficient MEFs; type: cell-based, mouse; conditions: for splicing of XBP-1 mRNA (UPR activation): thapsigargin 0.05 nM, tunicamycin 0.002 ug/ml, compared with controls
Method: as §1
At the start of the experiment, cells were placed in fresh media and treated with 200 nM Rapamycin or 10 mM […], and DMSO or PBS as respective vehicle controls (PBA was dissolved in PBS, and rapamycin was dissolved in DMSO), for 19 hours. As a vehicle control, DMSO was not present at a sufficiently high concentration to act as a chemical chaperone. Cells were then washed 3 times with serum-free DMEM-H+1% PS and incubated for 5 hours in serum free DMEM-H+1% PS in the presence of rapamycin or PBA and their appropriate vehicle controls. At the end of the incubation, the media was removed and dishes were immediately frozen in liquid nitrogen and stored at −80° C. untile further use.
as §2, §3, §4, §5, §6

[3] = system: TSC-2−/− cells; experiment: Insulin signaling (IRS-1, IRS-2, Akt western blot) in TSC-2−/− cells; type: cell-based, mouse; conditions: PBA treatment
Method: (§7) For insulin signaling experiments, cells were treated exactly the same way as for analysis of ER stress parameters. At the end of a 5-hour starvation period, cells were either stimulated with PBS or with 100 nM insulin for 5 minutes for analysis of ISR phosphorylation analysis, or 15 minutes for Akt phosphorylation analysis. Samples were harvested and subjected to western blotting as described above. Blots were probed with primary antibodies targeted to total and phosphorylated insulin receptor substrate (IRS)-1, and -2, and Akt, a downstream target in the insulin signaling pathway.

[4] = system: IRS-1; experiment: Degradation pattern of IRS-1 after cycloheximide addition in TSC-1 deficient cells; type: cell-based, mouse; conditions: pretreatment with PBA (an hour without PBA)
Source text: (§8) It has been previously shown that when ER stress is induced acutely, IRS-1 is highly phosphorylated at serine 307 residue, and insulin induced tyrosine phosphorylation is blocked. […] Eight hour stimulation with thapsigargin in the presence of MG132 leads to ubiquitination of IRS-1. […] As mentioned above, IRS-1 degradation was increased in both TSC1- and TSC2-deficient cells. […] IRS-1 protein levels became totally undetectable in an hour after cycloheximide addition, whereas pretreatment with PBA extends this period up to 4 hours.

[5] = system: TSC-1−/− cells; experiment: Insulin signaling (IRS-1, IRS-2, Akt western blot) in TSC-1−/− cells; type: cell-based, mouse; conditions: PBA treatment
Method: as §7

[6] = system: ER stress; conditions: western blot after treatment of the animal with the compound; cited from earlier work
[7] = system: c-Jun Amino Terminal Kinase-1 (JNK-1); experiment: c-Jun Amino Terminal Kinase (JNK) kinase assay on immunoprecipitates from TSC2-deficient cells; type: cell-based, mouse; conditions: PBA 10 mM
Method: Cell lysates were prepared as above, and subsequently incubated with primary antibody and Sepharose beads, either Protein A Sepharose or Protein G Sepharose depending on the antibody. The samples were incubated on a rotating apparatus overnight at 4° C. Subsequently, beads were centrifuged at 14,000 rpm and washed 3 times with cold lysis buffer. If immunoprecipitates were to be subjected to SDS-PAGE, they were boiled in 2× Laemmli buffer for 5 minutes prior to loading.
Following immunoprecipitation the beads were washed 3 times with lysis buffer as described above, and two times with JNK kinase assay buffer (25 mM HEPES (pH: 7.4), 20 mM MgCl2, 20 mM β-glycerophosphate, 0.5 mM EGTA, 0.5 mM NaF, 0.5 mM NaOrthoVanadate, 1 mM PMSF) for equilibration. After washing with kinase buffer, the beads were incubated in 17 μl kinase buffer, 1 μl [^32P]γ-ATP and 4 μg of c-Jun fusion protein at 30° C. for 20 minutes. The reaction was terminated by the addition of Laemmli buffer. The samples were resolved by SDS-page and transferred to a PVDF membrane as described above. Phosphorylated c-Jun bands were visualized prior to western blotting.
Phosphorylation state of the ER stress markers PERK, eIF2α cJun, JNK and s6K1, and the level of spliced XBP-1 were analyzed in both wild type and TSC-deficient MEFs. Cells were treated with PBS (vehicle control) or PBA (chemical chaperone) as discussed above. […]

[8] = system: TSC2−/− cells; experiment: Apoptosis (Cell Death Elisa, caspase 3 or PARP cleavage) in TSC2−/− cells; type: cell-based, mouse
[9] = system: TSC1−/− cells; experiment: Apoptosis (Cell Death Elisa, caspase 3 or PARP cleavage) in TSC1−/− cells; type: cell-based, mouse
Method: (§9) ER stress can cause apoptosis. […] Wild-type and TSC1−/− cells were plated in 96 well plates in DMEM-H+10% FBS+1% PS at 40-50% confluence. Upon reaching about 80% confluence, the cells were washed with DMEM-H without FBS and treated with the ER stress inducer thapsigargin (10 nM) or DMSO (vehicle control) for 6 hours in serum-free DMEM-H+1% PS. Apoptosis was analyzed by using Cell Death Elisa Kit using the manufacturer's instructions, or by detection of caspase 3 or PARP cleavage.

[10] = system: Wild-type control cells; experiment: Apoptosis in wild-type control cells; type: cell-based, mouse; conditions: thapsigargin, same time period (6 hours)
Method: as §9

[11] = system: wild type control cells; experiment: UPR activation by low doses of ER stress inducers in wild type control cells; type: cell-based, mouse; conditions: thapsigargin 0.05 nM, tunicamycin 0.002 ug/ml
Method: as §1
TSC-deficient cells and their corresponding control cells were exposed to extremely low doses of thapsigargin (0.05 nM) and tunicamycin (0.002 ug/ml) at which the UPR is not activated in wild type control cells. TSC1- and TSC2-deficient cells responded to the ER stress inducers by activating the UPR as determined by increased splicing of XBP-1 mRNA when compared with their controls.

[12] = system: kidney adenomas and liver hemangiomas of TSC-2+/− mice; type: in vivo; conditions: thapsigargin 1 mg/kg
Method: To address this, we have used around ˜1 year old TSC-2+/−mice for thapsigargin (1 mg/kg) or vehicle treatment. After 7 days of thapsigargin administration we have analyzed the apoptosis with tunnel assay in the kidney adenomas. […] Increased tunnel positivity in liver hemangiomas after thapsigargin treatment was also observed, but lack of liver hemangiomas in vehicle treated group, limits the conclusions that can be drawn from the study.

[13] = system: IRS-1; experiment: IRS-1 degradation and ubiquitination during ER stress induced by thapsigargin or tunicamycin; type: cell-based; conditions: for degradation of IRS-1: prolonged exposure to ER stress
Source text: as §8

[14] = TSC1-deficient MEFs, western blot, rapamycin 200 nM, 12 hours, PBA 10 mM
[15] = TSC2-deficient MEFs, western blot, rapamycin 200 nM, 12 hours, PBA 10 mM
[16] = 8 hours in the presence of 26S proteosome inhibitor epoxomicin

## C[C@@H]1C[C@@H]([C@H](O)CC2CC(=O)NC(=O)C2)C(=O)[C@@H](C)C1 [Cyclohexamide]
[1]; [14]
  PERK phosphorylation: decrease
[2]; [15]
  PERK phosphorylation: decrease

## O=C(O)CCCc1ccccc1 [PBA, 4-phenyl butyric acid]
[3]; 100 nM insulin 5 minutes
  insulin induced IRS-1 tyrosine phosphorylation: improved
  insulin induced IRS-2 tyrosine phosphorylation: improved
[3]; 100 nM insulin 15 minutes
  insulin induced Akt phosphorylation: improved
[3]
  protein levels of IRS-1: increase
[1]; [14]
  PERK phosphorylation: block
  S6 phosphorylation: significant decrease
  s6K1 phosphorylation: significant decrease
[1]; TSC1-deficient cells, PBA 10 mM
  eIF2α phosphorylation: substantial decrease
[1]; TSC-1 deficient cells glucose starved in the presence of 4-PBA
  XBP-1 mRNA splicing after glucose starvation: significantly reduced
[1]; TSC-1 deficient cells, 4-PBA treatment
  glucose starvation induced CHOP transcription: significantly reduced
[4]
  period until IRS-1 protein levels become undetectable after cycloheximide addition: up to 4 hours
[2]; [15]
  PERK phosphorylation: blocked
  S6 phosphorylation: significant decrease
[2]; TSC2-deficient cells, PBA 10 mM
  eIF2α phosphorylation: blocked
[2]; TSC-2 deficient cells glucose starved in the presence of 4-PBA
  XBP-1 mRNA splicing after glucose starvation: significantly reduced
[5]; 100 nM insulin 5 minutes
  insulin induced IRS-1 tyrosine phosphorylation: improved
  insulin induced IRS-2 tyrosine phosphorylation: improved
[5]; 100 nM insulin 15 minutes
  insulin induced Akt phosphorylation: improved
[5]
  protein levels of IRS-1: increase
[6]
  ER stress in animals (phosphorylation of PERK, activation of JNK, phosphorylation of IRE-1α): regulate ER stress
[7]
  c-Jun Amino Terminal Kinase-1 (JNK-1) activity: suppressed
[8]; TSC2-deficient cells, treatment with chemical chaperone
  rescue from ER stress inducer sensitivity: at least partially rescued
[8]; TSC-2−/− cells, 4-PBA treatment
  Glucose starvation induced PARP and caspase-3 cleavage: blocked
[9]; TSC-1−/− cells, 4-PBA treatment
  Glucose starvation induced PARP and caspase-3 cleavage: blocked

## C[C@H](CCC(=O)NCCS(=O)(=O)O)[C@H]1CC[C@H]2[C@@H]3[C@@H](O)C[C@@H]4C[C@H](O)CC[C@]4(C)[C@H]3CC[C@]12C [TUDCA, tauroursodeoxycholic acid]
[6]
  ER stress in animals (phosphorylation of PERK, activation of JNK, phosphorylation of IRE-1α): regulate ER stress

## C/C=C(/C)C(=O)O[C@H]1C(C)=C2[C@H]([C@@H]1OC(=O)CCCCCCC)[C@@](C)(OC(C)=O)C[C@H](OC(=O)CCC)[C@@]1(O)[C@H]2OC(=O)[C@@]1(C)O [thapsigargin]
[10]
  apoptosis: no apoptosis
[1]; TSC1-deficient cells
  splicing of XBP-1 mRNA (UPR activation): increased
[2]; TSC2-deficient cells
  splicing of XBP-1 mRNA (UPR activation): increased
[11]
  UPR activation: not activated
[8]; TSC2−/− cells, thapsigargin, after 6 hours
  apoptosis: massive apoptosis
[8]; TSC-2−/− cells, induction of ER stress
  PARP and caspase-3 cleavage: increased
[12]; no liver hemangiomas in vehicle treated group
  tunnel positivity in liver hemangiomas: Increased
[12]; ~1 year old TSC-2+/− mice, after 7 days
  tunnel assay positive cells in kidney adenomas: clear up-regulation
[13]; [16]
  ubiquitination of IRS-1: severe ubiquitination
[13]; eight hour stimulation in the presence of MG132
  ubiquitination of IRS-1: ubiquitination
[13]
  degradation of IRS-1: degradation of IRS-1
[9]; TSC1−/− cells after thapsigargin treatment, compared with controls
  cleaved caspase-3 or PARP cleavage: significantly induced
[9]; TSC1−/− cells, thapsigargin 10 nM, after 6 hours
  apoptosis: massive apoptosis

## tunicamycin
[1]; TSC1-deficient cells
  splicing of XBP-1 mRNA (UPR activation): increased
[2]; TSC2-deficient cells
  splicing of XBP-1 mRNA (UPR activation): increased
[11]
  UPR activation: not activated
[13]; [16]
  ubiquitination of IRS-1: severe ubiquitination
[13]
  degradation of IRS-1: degradation of IRS-1
